Test results as given in patent US6939893B2, “Method of reducing toxicity of anticancer agents” (priority 2002, dated 2005).
Read-outs that look alike come from different tables or passages of the source.

How the values were obtained:
normal mice = test: Role of MSC dose in modulating irinotecan toxicity in normal mice (Example 6); assay type: in vivo
Description: In order to identify the minimum dose of MSC in the successful modulation of drug induced toxicities. […] Those skilled in the art will recognize that by conducting experiments as described herein, optimal doses of selenium for reducing toxicity of other chemotherapeutic agents and other anticancer modalities can be easily determined.

normal nude mice [1] = test: Effect of MSC on in vivo toxicity of irinotecan in normal nude mice (Example 1, FIG. 1); conditions: for protection provided by MSC: MSC 0.2 mg/mouse/day ×42 p.o.
Description: The data are combined from at least three independent experiments with five (5) animals per experiment.
To illustrate this embodiment, nude mice were administered 42 single, daily oral doses of 0.2 mg/mouse of MSC.

normal nude mice [2] = tested on: normal nude mice
normal rats = test: Effect of MSC on toxicity of irinotecan in normal rats (Example 2, FIG. 2); assay type: in vivo
Description: The data are combined from 2-5 independent experiments with four (4) animals for each experiment.

normal nude mice [3] = test: Comparison of MSC and SLM as modulators of irinotecan toxicity in normal nude mice (Example 5, FIG. 4); assay type: in vivo
Description: Each experimental group had 10 mice each from two (2) independent experiments.

[4] = tested on: squamous cell carcinoma of the head and neck (A253); conditions: MSC 0.2 mg/mouse/d × 42 p.o. where combined
normal nude mice [5] = test: Effect of MSC on toxicity of irinotecan, taxol, FU and cisplatin in normal nude mice (Example 4, FIG. 3); assay type: in vivo; conditions: toxic doses above MTD: irinotecan weekly, taxol 75 mg/kg, 5-FU 150 mg/kg, cisplatin 15 mg/kg once i.v.
Description: In all cases drug doses used were toxic and above the maximum tolerated dose.

rats = test: Renal function test after CDDP ± MSC treatment in rats (Example 8); assay type: in vivo
Description: Reversal of renal toxicity induced by Cisplatin (CDDP). The dose limiting toxicity of therapeutic doses of cisplatin is kidney toxicity. Studies were performed to identify blood biological markers modified by CDDP and to evaluate the ability of MSC to reverse the process. Four groups of six animals each were used. The first group was untreated rats (control), the second group was given MSC at 0.75 mg/rat/day for 20 days and samples collected 2 hours after MSC administration on day 20. The third group was administered CDDP alone at 6 mg/kg by a single
i.v. injection and samples were collected on day 6. The fourth group was adminstered MSC (0.75 mg/rat/day for 20 days) with CDDP (6 mg/kg). CDDP was given 14 days after MSC administration and […] was given for 6 more days after CDDP administration. Samples were collected on day 6 after CDDP administration. Blood samples were collected at postmortem by cardiac puncture. Serum was obtained from the blood samples and urea nitrogen and creatinine concentrations were determined by standard methods using commercially kits (Ortho Clinical Diagnostics).

[6] = irinotecan 100 mg/kg/wk ×4 i.v. alone
[7] = irinotecan 200 mg/kg/wk×4 i.v. alone
[8] = day 22, 24 h after third irinotecan dose, irinotecan 200 mg/kg, MSC 0.2 mg/mouse
[9] = irinotecan 100 mg/kg/wk × 4 i.v.
[10] = serum, Mean ± SD, CDDP 6 mg/kg single i.v., MSC 0.75 mg/rat daily for 20 days

CCc1c2c(nc3ccc(OC(=O)N4CCC(N5CCCCC5)CC4)cc13)-c1cc3c(c(=O)n1C2)COC(=O)[C@]3(O)CC [Irinotecan, irinotecan, reference compound]
lethality (normal mice; irinotecan 200 mg/kg/wk×4 alone): 50%
animals survived treatment (normal nude mice [1]; [6]): 100%
weight loss (normal nude mice [1]; [6]): less than 20%
animals died by the end of treatment (normal nude mice [1]; [7]): 55%
maximum tolerated dose (MTD) (normal nude mice [1]; normal nude mice, irinotecan i.v. weekly ×4): 100 mg/kg/wk
HCT: haematocrit (normal nude mice [2]; [8]): 40.9 ± 4.2%
MCH: mean corpuscular hemoglobin (normal nude mice [2]; [8]): 17.5 ± 0.3 PICO Grams
MCHC: mean corpuscular hemoglobin concentration (normal nude mice [2]; [8]): 32.7 ± 0.6%
PLT: platelets (normal nude mice [2]; [8]): 836 ± 201 THSN/CU MM
RBC: red blood cell (normal nude mice [2]; [8]): 7.8 ± 1.0 Mill/CU MM
WBC: white blood cell (normal nude mice [2]; [8]): 3.5 ± 0.5 THSN/CU MM
WBC: white blood cell (normal nude mice [2]; day 22, 24 h after third irinotecan dose, irinotecan 200 mg/kg, MSC 0.2 mg/mouse, listed as irinotecan): 3.5 THSN/CU MM
reduction in white blood cells (normal nude mice [2]; irinotecan 200 mg/kg/wk, versus control (9.4 to 3.5)): over 60%
animals died (normal rats; rats, irinotecan 200 mg/kg/day for 3 days i.v. (twice MTD), MSC 1 mg/kg/rat daily ×18 p.o.): all the animals
lethality (normal nude mice [3]; [7]): approximately 55%
survivors (normal nude mice [3]; [7]): 45%
Response Rate (%) CR [4, 9]: 20%
Response Rate (%) PR [4, 9]: 20%
Survivors (%) [4, 9]: 100%
Survivors (%) ([4]; irinotecan 200 mg/kg/wk × 4 i.v.): 45%
Survivors (%) ([4]; irinotecan 300 mg/kg/wk × 4 i.v.): 0%

C[Se]C[C@H](N)C(=O)O [MSC, methylselenocysteine]
effect of MSC on the survival rate of animals (normal nude mice [5]): protective effect
MSC dose sufficient for complete protection against lethal doses of irinotecan (normal mice; MSC 0.01 to 0.2 mg/mouse/day×42 with irinotecan 200 mg/kg/wk×4): ≤ 0.01 mg/mouse
lethality with the combination (normal mice; MSC as low as 0.01 mg/mouse with irinotecan 200 mg/kg/wk×4): no lethality
effect of adding MSC on overall body weight loss (normal nude mice [1]; irinotecan 100 mg/kg/wk ×4 i.v. + MSC 0.2 mg/mouse/day ×42 p.o.): decrease in overall body weight loss
protection provided by MSC (normal nude mice [1]; irinotecan 200 mg/kg/wk×4 (twice MTD)): 100%
animals survived (normal nude mice [1]; irinotecan 200 mg/kg/wk×4 i.v. with MSC 0.2 mg/mouse/day ×42 p.o.): 100%
protection provided by MSC (normal nude mice [1]; irinotecan 300 mg/kg/wk×4 (three times MTD)): 80%
reversal of markers associated with kidney toxicity (BUN and creatinine) (rats; MSC 0.75 mg/rat/day with CDDP 6 mg/kg): highly effective
Blood Urea Nitrogen (rats; [10]): 12.7 ± 1.2 mg/dL
Creatinine (rats; [10]): 0.30 ± 0.00 mg/dL
prevention of neutropenia toxicity induced by irinotecan (normal nude mice [2]; MSC 0.2 mg/mouse/day with irinotecan 200 mg/kg/wk): effectively prevent neutropenia toxicity
HCT: haematocrit (normal nude mice [2]; [8]): 49.4 ± 2.4%
HGB: hemoglobin (normal nude mice [2]; [8]): 16.8 ± 0.7 Gram/DL
MCH: mean corpuscular hemoglobin (normal nude mice [2]; [8]): 18.4 ± 0.7 PICO Grams
MCHC: mean corpuscular hemoglobin concentration (normal nude mice [2]; [8]): 34.0 ± 0.7%
MCV: mean corpuscular volume (normal nude mice [2]; [8]): 54.0 ± 1.0 CU Microns
PLT: platelets (normal nude mice [2]; [8]): 756 ± 231 THSN/CU MM
RBC: red blood cell (normal nude mice [2]; [8]): 9.1 ± 0.5 Mill/CU MM
WBC: white blood cell (normal nude mice [2]; [8]): 10.3 ± 4.5 THSN/CU MM
protection against hematologic toxicity induced by irinotecan (normal nude mice [2]; irinotecan 200 mg/kg/wk×4): complete protection
animals with severe diarrhea completely protected by MSC (normal rats; rats (FIG. 2), irinotecan 200 mg/kg dose): 50%
reduction of irinotecan toxicity by selenium compound (normal nude mice [3]; irinotecan 200 mg/kg/wk×4 i.v., selenium compound p.o. daily for 28 days, first dose 7 days before irinotecan): equally effective in reducing toxicity
